The test system of assay [1] is SAR genes, WIR2 (PR5) and WCI3. In words: Time-course Northern blot analysis of SAR gene induction in glyphosate tolerant wheat. The following applies: leaf tissues of glyphosate tolerant wheat; INA 200 ppm in 0.1% surfactant blank.
Assay [2] relates to leaf rust spores (Puccinia triticina). The assay can be described thus: Leaf rust infection of treated glyphosate tolerant wheat in the SAR study. The class given is in vivo. The following applies: glyphosate tolerant wheat inoculated one day after treatment; WeatherMAX 0.75 lb/acre, INA 200 ppm.

In the case of `O=C(O)c1cc(Cl)nc(Cl)c1` [INA, 2,6-dichloro isonicotinic acid], the “WCI3 gene induction (Northern blot)” value in assay [1] is given as “induced”. Moreover, the “leaf rust infection / resistance” value in assay [2] is reported as “did not confer leaf rust resistance”.

The values are drawn from patent US10575526B2 (priority 2004, dated 2020).
